Reference: patent publication US20210244738A1, “COMPOSITIONS AND METHODS FOR SUPPRESSING NONSENSE MUTATIONS” (The UAB Research Foundation, priority 2018, published 2021)

Tests used:
[1] = tested on: W134X NanoLuc RT/NMD reporter; assay: W134X NanoLuc readthrough/NMD reporter screen in Fischer rat thyroid cells; type: cell-based; details: NanoLuc activity; for +G418 Fold-Increase (Rel. to G418): drug conc. 60 μM combined with G418 100 μg/ml
Method: Equal numbers of the W134X NanoLuc RT/NMD monoclonal reporter cells were seeded into 96-well plates and cultured without zeocin for 24 hours. The cells were then treated with screening compounds for 24-hours. Dimethylsulfoxide served as the vehicle in which compounds were administered at a final concentration of 60 μM or 30 μg/ml. After treatment, the cells were washed once with phosphate-buffered saline, followed by incubation with passive lysis buffer (PLB) (Promega, E1941) for 20 minutes at room temperature. NanLuc activity in cell lysates was assayed with the Nano-Glo Luciferase Assay System (Promega, N1120) using the GloMax® Discover System (Promega). NanoLuc activity was normalized to the lysate protein concentration, which was determined by the Bio-Rad Protein Assay Reagent (Bio-Rad, 500-006).
In order to identify new compounds with the ability to suppress PTCs by inducing readthrough, inhibiting NMD, or both, a NanoLuc reporter that harbors a point mutation at codon W134 was utilized, resulting in the introduction of a UGA termination codon (W134X) into the NanoLuc cDNA. This NanoLuc construct was fused in-frame to a human β-globin construct containing intronic regions, which allows the W134X PTC to elicit exon-junction-complex dependent NMD (FIG. 1A). This NanoLuc readthrough/NMD reporter was stably expressed in Fischer rat thyroid cells, which were used to screen a 10,000 low molecular weight compound library for compounds that increase NanoLuc activity in treated cells relative to a vehicle control.

[2] = tested on: Idua-KO MEFs; assay: GAG levels in Idua-KO MEFs; type: cell-based, mouse; details: 48 hours (FIG. 7B)
Method: MEFs were grown to 50% confluency and then treated with screening agents for 48 hours.

[3] = tested on: Idua mRNA in wildtype MEFs; assay: Steady state Idua mRNA by qPCR in wildtype MEFs; type: cell-based, mouse; details: 48 hours, compared to the vehicle alone control
Method: Total RNA was isolated from MEFs using the Ambion RiboPure kit and DNase-treated using the Turbo DNA-Free kit. Polyadenylated RNA was reverse transcribed into cDNA in a 50 μl reaction containing […] of total RNA; 0.5 mg/ml oligo dT; 1.2 mM dNTPs; 40 U RNasin (Promega); […] of 5×AMV RT buffer and 40 U AMV reverse transcriptase (Promega), RT reactions were incubated at 42° C. for 1.5 hours, and then heat inactivated at 65° C. for 15 minutes. The cDNA was ethanol precipitated and subjected to qPCR in a 25 μl reaction containing 12.5 μl iQ SYBR Green Supermix (Bio-Rad); 0.2 mM of each forward and reverse primer; and […] of cDNA. […]
Melt curve analysis was initially performed with each primer set to verify that only one gene product was generated from the PCR reactions. […] The average quantification cycle (Cq) was determined for each mRNA, and mRNA quantification was performed using the Livak (DDCq) method (Livak K J, et al. (2001) Methods. 25(4):402-8), where Gapdh and Rpl13a served as normalization controls.

[4] = tested on: Idua-KO MEFs; assay: α-L-iduronidase activity in Idua-KO MEFs; type: cell-based, mouse; details: 48 hours (FIG. 7A)
Method: MEFs were seeded into 6-well culture dishes at a density of 1.5×10^5 cells per well. MEFs were grown to 50% confluency and then treated with screening agents for 48 hours. MEFs were subsequently washed with PBS and lysed in Mammalian Protein Extraction Reagent (Pierce) containing a protease inhibitor cocktail (Roche). The total protein concentration was determined using the Bio-Rad Protein Assay, Approximately 75 micrograms of total lysate protein was incubated in a 70-microliter reaction containing 0.12 mM 4-methyl-umbelliferyl-α-L-iduronide (Gold Biotech) and 0.42 mg/ml of D-saccharic acid 1,4-lactone monohydrate (a β-glucuronidase inhibitor) (Sigma 50375) in 130 mM sodium formate buffer, pH 3.5. The reaction was incubated for 72 hours at 37° C. and then quenched with 300 μl of glycine buffer, pH 10.8. 200 μl of each sample was transferred to a 96-well plate (Corning 3631) and fluorescence was measured at an excitation=365 nm and an emission=450 nm using the GloMax® Discover System (Promega). Free acid 4-methylumbelliferone (FMU) (Sigma M1381) in glycine buffer was used to generate a standard curve.

[5] = Hirawat et al. 2004, 2007; cited from earlier work
[6] = tested on: cystic fibrosis patients who carry a PTC; details: Kerem et al. 2014; cited from earlier work

Compound | +G418 Fold-Increase (Rel. to G418) [1] | Drug Alone Fold-Increase (Rel. to Basal) ([1]; drug conc. 60 μM, 24 h) | further results
CN1CC(=O)N2[C@H](c3ccc4c(c3)OCO4)c3[nH]c4ccccc4c3C[C@@H]2C1=O [Tadalafil] | 6.3 fold | 2.3 fold | –
COc1cc2c(N3CCN(C(=O)Nc4ccc(OC(C)C)cc4)CC3)ncnc2cc1OCCCN1CCCCC1 [Tandutinib] | 7.8 fold | 3.8 fold | –
Cc1ccc(NC(=O)c2ccc(CN3CCN(C)CC3)cc2)cc1Nc1nccc(-c2cccnc2)n1 [Imantinib] | 19.1 fold | 4.6 fold | –
Nc1nc(N)c2nc(-c3ccccc3)c(N)nc2n1 [Triamterene, 2,4,7-triamino-6-phenylpteridine] | 15.7 fold | 13.4 fold | reduction in GAGs [2]: little to no reduction in GAGs; change of Idua mRNA levels [3]: did not significantly change Idua mRNA levels; α-L-iduronidase activity [4]: slight increases in α-L-iduronidase
C=CCN1CC[C@]23c4c5ccc(O)c4O[C@H]2/C(=N/N=C2\CC[C@@]4(O)[C@H]6Cc7ccc(O)c8c7[C@@]4(CCN6CC=C)[C@H]2O8)CC[C@@]3(O)[C@H]1C5 [Naloxonazine] | 5.8 fold | 2.7 fold | –
COc1cc2c(cc1OC)CN(CCc1ccc(NC(=O)c3cccc4c(=O)c5cccc(OC)c5[nH]c34)cc1)CC2 [Elacridar] | 6.0 fold | 4.8 fold | –
CN[C@@H]1[C@@H](O)[C@@H](O[C@@H]2[C@@H](O)[C@H](O[C@H]3O[C@H]([C@@H](C)O)[C@@H](O)[C@H](O)[C@H]3N)[C@@H](N)C[C@H]2N)OC[C@]1(C)O [G418 alone] | – | – | Drug Alone Fold-Increase (Rel. to Basal) ([1]; readthrough control at 100 μg/ml): 24 fold
CCCn1c(=O)c2[nH]c(-c3cnn(Cc4cccc(C(F)(F)F)c4)c3)nc2n(CC)c1=O [GS-6201] | 13.6 fold | 10.3 fold | –
Verteporfin | 7.1 fold | 4.3 fold | –
COc1cc2nc(N3CCN(C(=O)C4COc5ccccc5O4)CC3)nc(N)c2cc1OC (stereo not shown) [Doxazocin] | 10.3 fold | 4.1 fold | change of Idua mRNA levels [3]: slightly increased Idua mRNA levels
O=C(O)c1cccc(-c2noc(-c3ccccc3F)n2)c1 [ataluren] | – | – | toxicity / safety for clinical use [5]: non-toxic and safe for clinical use; lung function [6]: did not significantly improve lung function
